Data from article PMC10053857, “Analysis of NSAIDs in Rat Plasma Using 3D-Printed Sorbents by LC-MS/MS: An Approach to Pre-Clinical Pharmacokinetic Studies” (Pharmaceutics, 2023).
Blank lines part the entries; values can stand above or below the molecule they belong to.

Key:
in vivo = test: in vivo; design: species or system male Sprague-Dawley rats; conditions: male, Sprague-Dawley, rat, po
Description: A 3D sorbent was used as the extraction device to evaluate the in vivo pharmacokinetics of acetaminophen and indomethacin. The Institutional Animal Ethics Committee of the National Institute of Pharmaceutical Education and Research, Guwahati (NIPER/CAF/IAEC/2022/60) approved all the animal experiments. For the pharmacokinetic study, the animal house was kept at a temperature of 25 ± 1 °C with a relative humidity of 50 ± 15%. The rats were maintained on a 12-h dark/light cycle and had free access to food and water. Prior to the study, the animals fasted for 12 h. To minimize variations in drug concentration in the plasma, 18 male Sprague-Dawley rats of similar weight and age were used. Rats were administered 50 mg/kg acetaminophen and 10 mg/kg indomethacin in saline through oral gavage to a different group. Blood samples were collected and thoroughly vortexed at 0.25, 0.50, 1, 2, 4, 6, and 8 h before being centrifuged at 5000 rpm for 20 min at 4 °C. The resulting plasma samples were separated and subjected to analysis using LC-MS/MS. The 3D extraction prototype was used to extract analytes from the plasma by introducing 90 µL of plasma spiked with 10 µL of an internal standard (I.S., 50 ng/mL), making up to 1 mL with deionized water, and adding the 3D extraction device for the adsorption process. After 15 min of adsorption in the vortexes, the remaining residue was collected for further analysis, the prototype was transferred into a fresh microcentrifuge tube, and desorption solvents (water and acetonitrile) were added in a 1:1 (v/v) ratio and vortexed for 15 min. Samples were collected after successful desorption and analyzed using LC-MS/MS.
Male Sprague-Dawley rats (n = 6) were used for pharmacokinetic studies, and oral doses of indomethacin and acetaminophen were separately administered to overnight-fasted rats. Blood was collected through retro-orbital puncture at different time points, and plasma was separated and stored for further analysis. Plasma containing indomethacin and acetaminophen was added to the microcentrifuge tube containing the activated extraction device for adsorption and vortexed for 15 min with 1 mL of water, after which the analytes present in the plasma were bound to the surface of the cartridge. After adsorption for 15 min, the remaining solvent was transferred into a fresh tube and centrifuged to precipitate the matrix. The resulting supernatant was collected and introduced into an LC-MS/MS system to quantify the unbound concentration. The sorbent was transferred into a fresh microcentrifuge tube for desorption using acetonitrile and water and vortexed for 15 min to complete the process. The solution was collected, followed by centrifugation, and the supernatant was filtered through a 0.2µm filter. The resulting filtrate was then subjected to LC-MS/MS analysis to measure the indomethacin and acetaminophen concentration in the plasma.
An investigation into the pharmacokinetics of indomethacin and acetaminophen in rats was conducted through oral administration, employing LC-ESI-MS/MS analysis. Figure 9 illustrates the resulting pharmacokinetic profile, while Table 4 presents the computed pharmacokinetic parameters of both substances, obtained via PK Analysis Add-ins in the Microsoft Excel Program. […] The mean area under the curve (AUC0–t) for indomethacin is 0.93 µg h/mL and for acetaminophen is 32.33 µg h/mL. […] Based on the obtained results, the developed 3D-printed sorbent efficiently extracted analytes from plasma, reduced sample preparation time, and minimized the use of organic solvents during sample preparation.

[1] = Stability of analytes in rat plasma (bench-top, autosampler/post-operative, freeze-thaw); type: in vitro ADME; conditions: for Mean Estimated Concentration ± SD, autosampler stability: 15 °C for 24 h; for Mean Estimated Concentration ± SD, bench-top stability: 8 h at ambient temperature; for Mean Estimated Concentration ± SD, three freeze-thaw cycles: each cycle at −20 °C; for mean percentage changes in plasma during bench-top stability, post-operative, and three freeze-thaw cycles: low and high QC
Description: To assess the specificity and selectivity of the validated LC-MS/MS method and to determine the exclusion of endogenous interferences at the retention time of the compound and I.S., a total of six plasma samples and two plasma samples containing 50 ng/mL I.S. solution were subjected to extraction using the 3D sorbent. A calibration curve for rat plasma was constructed for standards over a range of 1–800 ng/mL for acetaminophen and 1–500 ng/mL for indomethacin. The peak area ratio of the drug and I.S. was plotted with a weighing factor of 1/X to assess acetaminophen linearity and linear regression for indomethacin. The minimum detectable concentration of analytes, also known as the lower limit of quantification (LLOQ), was established as the concentration at which the coefficient of variation (CV) is less than 20%, and the accuracy is within the range of 80–120%. Four different concentrations of quality control samples were used for six replicates to determine the intra- and inter-day precision and accuracy. As per the FDA guidelines, CV was limited to <20% for the LLOQ and ≤15% for the LQC, MQC, and HQC. Accuracy was calculated as the percentage difference between the observed and nominal concentrations of the QC samples. A comparison of the peak area ratios of analytes to I.S. of extracted samples (n = 6) and drug solutions of the same concentration was performed to evaluate the extraction recovery of molecules from rat plasma. LQC, MQC, and HQC concentrations were investigated for extraction recovery. The matrix effect of the LQC, MQC, and HQC samples was determined by deproteinizing the blank plasma samples and adding analytes and I.S. to the deproteinized sample. Furthermore, the same analyte concentrations were analyzed in aqueous solutions. The matrix factor was calculated using the following equation: (peak area of post-extracted standard analytes/peak area of the analyte in aqueous solution) × 100. To test the dilution integrity, the range of the standard compound concentrations was increased beyond the calibration range. Plasma samples with 1200 ng/mL of acetaminophen and indomethacin were individually prepared and then diluted two-fold and four-fold using blank plasma. The dilution integrity of concentrations was evaluated with %CV <15%. A series of injections was performed to assess the carry-over effect of acetaminophen and indomethacin. The injections included a blank solvent sample, a higher concentration standard sample, a blank plasma sample extracted with the 3D sorbent, and a higher concentration sample extracted with 3D sorbent from plasma. The thresholds for carry-over effects were 20% of the mean extracted LLOQ signal and 5% of the I.S. response. The stability of acetaminophen and indomethacin in rat plasma was evaluated at six low- and high-quality control sample replicates. Benchtop and post-operative stability studies were conducted at 8 h at ambient temperature and 15 °C for 24 h, respectively. Quality control samples were stored at −20 °C and thawed at room temperature every 24 h for freeze-thaw stability, and after three freeze-thaw cycles, samples were analyzed.

[2] = acetaminophen, HQC, theoretical 600 ng/mL
[3] = acetaminophen, LQC, theoretical 3 ng/mL
[4] = indomethacin, HQC, theoretical 400 ng/mL
[5] = indomethacin, LQC, theoretical 3 ng/mL

AUC (in vivo; 50 mg/kg): 32400 ± 10800 ng·h/mL
AUC(0-t) (in vivo; 50 mg/kg): 32300 ± 10800 ng·h/mL
Cmax (in vivo; 50 mg/kg): 27300 ± 9900 ng/mL
Tmax (in vivo; 50 mg/kg): 30 to 60 min
half-life (in vivo; 50 mg/kg): 48.6 ± 6 min
k el (in vivo; 50 mg/kg): 0.000236 s⁻¹
Mean Estimated Concentration ± SD, autosampler stability [1, 2]: 596.26 ± 8.41 ng/mL
Mean Estimated Concentration ± SD, bench-top stability [1, 2]: 592.92 ± 10.80 ng/mL
Mean Estimated Concentration ± SD, three freeze-thaw cycles [1, 2]: 591.92 ± 6.66 ng/mL
Mean Estimated Concentration ± SD, autosampler stability [1, 3]: 2.92 ± 0.15 ng/mL
Mean Estimated Concentration ± SD, bench-top stability [1, 3]: 2.91 ± 0.16 ng/mL
Mean Estimated Concentration ± SD, three freeze-thaw cycles [1, 3]: 3.01 ± 0.09 ng/mL
mean percentage changes in plasma during bench-top stability, post-operative, and three freeze-thaw cycles [1]: within acceptable limits
SMILES: CC(=O)Nc1ccc(O)cc1 [Acetaminophen]

AUC (in vivo; 10 mg/kg): 970 ± 200 ng·h/mL
AUC(0-t) (in vivo; 10 mg/kg): 930 ± 170 ng·h/mL
Cmax (in vivo; 10 mg/kg): 330 ± 40 ng/mL
Tmax (in vivo; 10 mg/kg): 30 to 60 min
half-life (in vivo; 10 mg/kg): 107 ± 26.4 min
k el (in vivo; 10 mg/kg): 0.000114 s⁻¹
Mean Estimated Concentration ± SD, autosampler stability [1, 4]: 391.82 ± 6.72 ng/mL
Mean Estimated Concentration ± SD, bench-top stability [1, 4]: 401.61 ± 7.80 ng/mL
Mean Estimated Concentration ± SD, three freeze-thaw cycles [1, 4]: 395.72 ± 13.06 ng/mL
Mean Estimated Concentration ± SD, autosampler stability [1, 5]: 2.99 ± 0.04 ng/mL
Mean Estimated Concentration ± SD, bench-top stability [1, 5]: 2.98 ± 0.11 ng/mL
Mean Estimated Concentration ± SD, three freeze-thaw cycles [1, 5]: 2.96 ± 0.12 ng/mL
mean percentage changes in plasma during bench-top stability, post-operative, and three freeze-thaw cycles [1]: within acceptable limits
SMILES: COc1ccc2c(c1)c(CC(=O)O)c(C)n2C(=O)c1ccc(Cl)cc1 [Indomethacin]
